Experimental data reported in patent US4098798A, “Adriamycins, process for their preparation and uses thereof” (Societa' Farmaceutici Italia S.p.A., priority 1974, dated 1978).
In brackets after ≈: the same amount, converted by molar mass. Read-outs that look alike come from different tables or passages of the source.

Tests used:
[1] = system: Transplanted Gross Leukemia; experiment: Action on Transplanted Gross Leukemia in mice; format: in vivo, C3 H/He mice; details: first to fifth day
Description: Inbred C3 H/He mice were intravenously inoculated with […] leukemia cells/mouse and treated, intravenously, from the first to the fifth day after inoculation with the compounds under examination.

Solid Sarcoma 180 = experiment: Activity on Solid Sarcoma 180 in mice; format: in vivo, Swiss CD 1 mice; details: for % Inhibition tumor growth: 10th day
Ascites Sarcoma 180 = experiment: Action on Ascites Sarcoma 180 in mice; format: in vivo, mice (Swiss CD 1); details: for Average Survival time: one day after inoculation, untreated = 100%
Protocol: The tests were carried out on groups of 10 mice (Swiss CD 1). The compounds under examination were administered intraperitoneally in varying doses to the test animals one day after intraperitoneal inoculation with 1 × 10^6 tumor cells per animal. The average survival time is given in Table 1 as a percentage of the survival time of untreated animals, which is arbitrarily designated as 100%. Also given in Table 1 are the number of long term survivors.

B-subtilis = experiment: inhibition zones on agar-B-subtilis plates, paper disc technique; format: cell-based; details: hydrochlorides, read-out: inhibition zone diameter
[2] = system: Moloney Sarcoma Virus (MSV); experiment: MSV foci formation in infected mouse embryo fibroblast cultures (antiviral action); format: cell-based; details: 72 h, treatment of 3 days, read-out: Antiviral Action ID50
Protocol: (§1) The test compounds were evaluated on mouse embryo fibroblast cultures infected with MSV and on similar uninfected cultures. After a treatment of 3 days, the inhibiting doses (ID50) were evaluated on cell proliferation in uninfected cultures (cytotoxic action) and on MSV foci formation in infected cultures (antiviral action).

HeLa cells = experiment: Cloning Efficiency of Hela cells in vitro; format: cell-based; details: for IC50: Homo sapiens, HeLa, 50% inhibition of colonies
Protocol: After treatment for 2,8 or 24 hours, HeLa cells were seeded (200 cells per plate) and the number of colonies determined 8 days later.
The ID50 represents the dose which gives a 50% of inhibition of colonies.

[3] = Cardiotoxic activity in vitro, beating of myocardial cells; format: cell-based, mice; details: mouse, 0.5 μg/ml, read-out: decrease of beating
[4] = cell proliferation in uninfected mouse embryo fibroblast cultures (cytotoxic action); format: cell-based; details: mouse embryo fibroblasts, treatment of 3 days, read-out: Cytotoxic Action ID50
Protocol: as §1

L1210 Leukemia = experiment: Action on L1210 Leukemia in mice; format: in vivo, BDF1 mice; details: 5 times every two hours on days 1 and 2
Description: Inbred BDF1 mice were intraperitoneally inoculated with 10^5 leukemia cells/mouse, and then treated (intraperitoneally) 5 times (every two hours) on days 1 and 2 after the tumor inoculation with varying doses of the compounds under examination.

[5] = 1.25 mg/Kg subcutaneously every 2 hrs for 5 times at days 1 and 3
[6] = 1.75 mg/Kg subcutaneously every 2 hrs for 5 times at days 1 and 3
[7] = 2 mg/Kg intravenously twice a day on days 1,2,3
[8] = 2.45 mg/Kg subcutaneously every 2 hrs for 5 times at days 1 and 3
[9] = 2.5 mg/Kg intravenously once a day on days 1,2,3,4,5
[10] = 2.5 mg/Kg intravenously twice a day on days 1,2,3
[11] = 3 mg/Kg intravenously twice a day on days 1,2,3

COc1cccc2c1C(=O)c1c(O)c3c(c(O)c1C2=O)C[C@@](O)(C(=O)CO)C[C@@H]3O[C@H]1C[C@H](N)[C@H](O)[C@H](C)O1 [Adriamycin, 7-0-(3'-amino-2',3',6'-trideoxy-α-L-lyxohexopyranosyl)-adriamycinone]
Long Term Survivors (after 60 days) ([1]; 2 mg/Kg i.v.): 0/10
Average Survival time, Exp. 1 ([1]; 2 mg/Kg i.v.): 183%
Long Term Survivors (after 60 days) ([1]; 2.5 mg/Kg i.v.): 0/20
Average Survival time, Exp. 1 ([1]; 2.5 mg/Kg i.v.): 208%
Average Survival time, Exp. 2 ([1]; 2.5 mg/Kg i.v.): 186%
Long Term Survivors (after 60 days) ([1]; 2.75 mg/Kg i.v.): 0/10
Average Survival time, Exp. 1 ([1]; 2.75 mg/Kg i.v.): 208%
Long Term Survivors (after 60 days) ([1]; 3 mg/Kg i.v.): 0/10
Average Survival time, Exp. 2 ([1]; 3 mg/Kg i.v.): 186%
Long Term Survivors (after 60 days) ([1]; 3.6 mg/Kg i.v.): 0/10
Average Survival time, Exp. 2 ([1]; 3.6 mg/Kg i.v.): 200%
Average Survival time (Solid Sarcoma 180; [5]): 112%
Toxic Deaths (at 10th day) (Solid Sarcoma 180; [5]): 0/10
% Inhibition tumor growth (Solid Sarcoma 180; [5]): 69%
Average Survival time (Solid Sarcoma 180; [6]): 87%
Toxic Deaths (at 10th day) (Solid Sarcoma 180; [6]): 1/10
% Inhibition tumor growth (Solid Sarcoma 180; [6]): 75%
Average Survival time (Solid Sarcoma 180; [7]): 100%
Toxic Deaths (at 10th day) (Solid Sarcoma 180; [7]): 1/10
% Inhibition tumor growth (Solid Sarcoma 180; [7]): 70%
Average Survival time (Solid Sarcoma 180; [8]): 32%
Toxic Deaths (at 10th day) (Solid Sarcoma 180; [8]): 6/10
Toxic Deaths (at 10th day) (Solid Sarcoma 180; [9]): 0/10
% Inhibition tumor growth (Solid Sarcoma 180; [9]): 54%
Average Survival time (Solid Sarcoma 180; [10]): 100%
Toxic Deaths (at 10th day) (Solid Sarcoma 180; [10]): 2/10
% Inhibition tumor growth (Solid Sarcoma 180; [10]): 71%
Average Survival time (Solid Sarcoma 180; [11]): 57%
Toxic Deaths (at 10th day) (Solid Sarcoma 180; [11]): 6/10
Toxic Deaths (at 10th day) (Solid Sarcoma 180; 3.5 mg/Kg intravenously once a day on days 1,2,3,4,5): 7/10
Long Term Survivors (after 60 days) (Ascites Sarcoma 180; 1 mg/Kg i.p.): 0/10
Average Survival time (Ascites Sarcoma 180; 1 mg/Kg i.p.): 169%
Long Term Survivors (after 60 days) (Ascites Sarcoma 180; 5 mg/Kg i.p.): 2/10
Average Survival time (Ascites Sarcoma 180; 5 mg/Kg i.p.): 276%
zone of inhibition at 10 µg/disc (B-subtilis; 10 μg): 21 mm
zone of inhibition at 20 µg/disc (B-subtilis; 20 μg): 23 mm
IC50 [2]: 0.005 µg/mL (≈ 0.0092 µM)
IC50 (HeLa cells; Table 7, 2h treatment, read-out: DI50 (the source's name)): 0.17 µg/mL (≈ 0.313 µM)
IC50 (HeLa cells; Table 7, 8h treatment, read-out: DI50 (the source's name)): 0.14 µg/mL (≈ 0.258 µM)
IC50 (HeLa cells; Table 7, 24h treatment, read-out: DI50 (the source's name)): 0.016 µg/mL (≈ 0.0294 µM)
IC50 (HeLa cells; Table 8, 2h treatment, read-out: DI 50 (the source's name)): 0.35 µg/mL (≈ 0.644 µM)
IC50 (HeLa cells; Table 8, 8h treatment, read-out: DI 50 (the source's name)): 0.18 µg/mL (≈ 0.331 µM)
IC50 (HeLa cells; Table 8, 24h treatment, read-out: DI 50 (the source's name)): 0.125 µg/mL (≈ 0.23 µM)
Average Number of Colonies (HeLa cells; Table 7, 0.05 μg/ml, 24h, control 223): 76
Average Number of Colonies (HeLa cells; Table 7, 0.1 μg/ml, 2h, control 132): 79
Average Number of Colonies (HeLa cells; Table 7, 0.1 μg/ml, 8h, control 125): 73
Average Number of Colonies (HeLa cells; Table 7, 0.1 μg/ml, 24h, control 223): 48
Average Number of Colonies (HeLa cells; Table 7, 0.25 μg/ml, 2h, control 132): 46
Average Number of Colonies (HeLa cells; Table 7, 0.25 μg/ml, 8h, control 125): 38
Average Number of Colonies (HeLa cells; Table 7, 0.25 μg/ml, 24h, control 223): 20
Average Number of Colonies (HeLa cells; Table 7, 0.5 μg/ml, 2h, control 132): 42
Average Number of Colonies (HeLa cells; Table 7, 0.5 μg/ml, 8h, control 125): 16
Average Number of Colonies (HeLa cells; Table 7, 0.5 μg/ml, 24h, control 223): 0
Average Number of Colonies (HeLa cells; Table 7, 1 μg/ml, 2h, control 132): 21
Average Number of Colonies (HeLa cells; Table 7, 1 μg/ml, 8h, control 125): 8
Average Number of Colonies (HeLa cells; Table 7, 1 μg/ml, 24h, control 223): 0
Average Number of Colonies (HeLa cells; Table 8, 0.125 μg/ml, 2h, control 156): 166
Average Number of Colonies (HeLa cells; Table 8, 0.125 μg/ml, 24h, control 136): 69
Average Number of Colonies (HeLa cells; Table 8, 0.25 μg/ml, 2h, control 156): 92
Average Number of Colonies (HeLa cells; Table 8, 0.25 μg/ml, 8h, control 189): 28
Average Number of Colonies (HeLa cells; Table 8, 0.25 μg/ml, 24h, control 136): 43
Average Number of Colonies (HeLa cells; Table 8, 0.5 μg/ml, 2h, control 156): 27
Average Number of Colonies (HeLa cells; Table 8, 0.5 μg/ml, 8h, control 189): 14
inhibition at 2 h [3]: 50%
CC50 at 72 h [4]: 0.01 µg/mL (≈ 0.0184 µM)
Average Survival time (L1210 Leukemia; 0.75 mg/Kg i.p.): 160%
Average Survival time (L1210 Leukemia; 1 mg/Kg i.p.): 155%
Long Term Survivors (after 60 days) (L1210 Leukemia; 1 mg/Kg i.p.): 1/10
Average Survival time (L1210 Leukemia; 1.25 mg/Kg i.p.): 175%
